Measured values published in ChEMBL document CHEMBL3991601, “The target landscape of clinical kinase drugs” (Science, 2017).
Activity calls are given as the source filed them. For most assays here, no stated cut-off is given here; in the data, actives have a measured Kd and inactives only a lower limit.

What was measured:
[1] = target: Interleukin-1 receptor-associated kinase 1 (Homo sapiens, UniProt P51617)
[2] = target: T1, Mitogen-activated protein kinase kinase kinase 2 (Homo sapiens, UniProt Q9Y2U5)
T1 sequence (Q9Y2U5 whole entry): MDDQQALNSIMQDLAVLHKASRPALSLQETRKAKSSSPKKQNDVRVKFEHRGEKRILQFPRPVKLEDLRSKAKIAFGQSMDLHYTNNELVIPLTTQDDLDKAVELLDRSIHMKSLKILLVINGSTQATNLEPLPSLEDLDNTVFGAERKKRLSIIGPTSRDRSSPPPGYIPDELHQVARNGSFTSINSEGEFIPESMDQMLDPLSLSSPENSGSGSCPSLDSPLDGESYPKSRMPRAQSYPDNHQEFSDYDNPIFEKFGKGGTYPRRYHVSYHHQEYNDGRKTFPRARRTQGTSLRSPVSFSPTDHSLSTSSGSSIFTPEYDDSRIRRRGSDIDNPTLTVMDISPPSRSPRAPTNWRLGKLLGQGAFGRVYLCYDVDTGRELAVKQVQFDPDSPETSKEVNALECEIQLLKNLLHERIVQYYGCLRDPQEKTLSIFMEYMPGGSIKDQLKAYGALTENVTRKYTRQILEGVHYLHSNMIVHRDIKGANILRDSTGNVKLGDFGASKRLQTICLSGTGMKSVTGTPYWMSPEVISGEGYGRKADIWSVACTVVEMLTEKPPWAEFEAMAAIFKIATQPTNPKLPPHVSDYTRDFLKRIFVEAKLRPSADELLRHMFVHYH

[3] = target: T2, Dual specificity mitogen-activated protein kinase kinase 5 (Homo sapiens, UniProt Q13163)
T2 sequence (Q13163 whole entry): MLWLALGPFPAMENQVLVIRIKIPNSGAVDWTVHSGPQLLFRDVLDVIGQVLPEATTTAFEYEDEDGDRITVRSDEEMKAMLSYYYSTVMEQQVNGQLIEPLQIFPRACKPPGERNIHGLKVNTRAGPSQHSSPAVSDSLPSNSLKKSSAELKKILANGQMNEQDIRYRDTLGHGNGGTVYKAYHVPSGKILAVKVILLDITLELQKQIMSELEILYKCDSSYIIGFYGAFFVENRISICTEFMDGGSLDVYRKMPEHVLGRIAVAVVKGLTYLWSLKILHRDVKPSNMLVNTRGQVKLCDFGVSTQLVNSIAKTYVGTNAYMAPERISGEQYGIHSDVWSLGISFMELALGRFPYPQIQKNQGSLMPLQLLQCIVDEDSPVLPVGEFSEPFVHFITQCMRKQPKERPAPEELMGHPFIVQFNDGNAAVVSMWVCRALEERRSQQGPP

[4] = target: T3, ATP-dependent RNA helicase DDX1 (Homo sapiens, UniProt Q92499)
T3 sequence (Q92499 whole entry): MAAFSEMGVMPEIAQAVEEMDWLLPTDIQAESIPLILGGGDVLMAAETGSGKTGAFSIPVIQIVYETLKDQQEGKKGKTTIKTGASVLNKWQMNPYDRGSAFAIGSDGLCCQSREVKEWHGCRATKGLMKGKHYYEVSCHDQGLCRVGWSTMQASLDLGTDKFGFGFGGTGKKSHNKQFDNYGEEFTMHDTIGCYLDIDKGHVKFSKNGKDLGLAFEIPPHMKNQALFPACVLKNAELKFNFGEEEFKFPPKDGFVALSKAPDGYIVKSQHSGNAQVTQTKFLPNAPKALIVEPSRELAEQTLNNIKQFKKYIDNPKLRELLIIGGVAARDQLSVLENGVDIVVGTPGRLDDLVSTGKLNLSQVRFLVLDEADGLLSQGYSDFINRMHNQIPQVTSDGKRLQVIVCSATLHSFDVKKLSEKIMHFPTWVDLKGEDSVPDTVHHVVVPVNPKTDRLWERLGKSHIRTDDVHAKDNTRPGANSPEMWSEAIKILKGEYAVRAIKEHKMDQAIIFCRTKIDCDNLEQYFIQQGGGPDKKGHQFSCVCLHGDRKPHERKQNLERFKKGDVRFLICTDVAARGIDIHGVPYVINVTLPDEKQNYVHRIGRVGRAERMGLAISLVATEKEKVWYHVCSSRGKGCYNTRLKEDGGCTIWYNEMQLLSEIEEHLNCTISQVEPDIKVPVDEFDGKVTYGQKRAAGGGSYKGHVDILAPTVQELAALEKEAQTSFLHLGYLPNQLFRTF

[5] = target: T4, Phosphorylase b kinase gamma catalytic chain, liver/testis isoform (Homo sapiens, UniProt P15735)
T4 sequence (P15735 whole entry): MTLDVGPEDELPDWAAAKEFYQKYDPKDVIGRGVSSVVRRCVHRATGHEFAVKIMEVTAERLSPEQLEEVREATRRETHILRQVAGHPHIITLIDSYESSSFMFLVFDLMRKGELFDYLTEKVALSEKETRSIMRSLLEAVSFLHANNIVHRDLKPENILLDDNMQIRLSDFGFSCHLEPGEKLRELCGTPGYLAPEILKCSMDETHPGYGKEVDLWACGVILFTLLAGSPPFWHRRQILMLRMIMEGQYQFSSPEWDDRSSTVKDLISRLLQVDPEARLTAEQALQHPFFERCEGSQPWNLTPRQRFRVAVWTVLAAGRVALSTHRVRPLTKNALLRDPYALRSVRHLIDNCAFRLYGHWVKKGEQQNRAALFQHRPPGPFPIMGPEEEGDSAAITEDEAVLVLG

[6] = target: Tyrosine-protein kinase Fyn (Homo sapiens, UniProt P06241)
Chain of Tyrosine-protein kinase Fyn (P06241 whole entry): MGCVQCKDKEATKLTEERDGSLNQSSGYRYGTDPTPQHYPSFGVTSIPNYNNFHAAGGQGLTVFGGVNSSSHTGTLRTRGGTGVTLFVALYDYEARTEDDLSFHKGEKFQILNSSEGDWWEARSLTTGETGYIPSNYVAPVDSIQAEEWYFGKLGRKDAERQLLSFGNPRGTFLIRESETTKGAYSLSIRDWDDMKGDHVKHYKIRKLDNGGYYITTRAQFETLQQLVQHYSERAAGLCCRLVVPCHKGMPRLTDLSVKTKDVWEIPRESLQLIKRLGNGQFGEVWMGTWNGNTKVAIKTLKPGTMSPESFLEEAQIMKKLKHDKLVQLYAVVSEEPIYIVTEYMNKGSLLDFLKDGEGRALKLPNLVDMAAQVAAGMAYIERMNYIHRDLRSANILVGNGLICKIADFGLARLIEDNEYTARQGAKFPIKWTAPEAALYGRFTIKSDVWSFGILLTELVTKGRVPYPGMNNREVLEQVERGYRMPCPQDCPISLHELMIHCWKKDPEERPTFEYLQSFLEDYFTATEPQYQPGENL

[7] = target: RAC-alpha serine/threonine-protein kinase (Homo sapiens, UniProt P31749)
Chain of RAC-alpha serine/threonine-protein kinase (P31749 whole entry): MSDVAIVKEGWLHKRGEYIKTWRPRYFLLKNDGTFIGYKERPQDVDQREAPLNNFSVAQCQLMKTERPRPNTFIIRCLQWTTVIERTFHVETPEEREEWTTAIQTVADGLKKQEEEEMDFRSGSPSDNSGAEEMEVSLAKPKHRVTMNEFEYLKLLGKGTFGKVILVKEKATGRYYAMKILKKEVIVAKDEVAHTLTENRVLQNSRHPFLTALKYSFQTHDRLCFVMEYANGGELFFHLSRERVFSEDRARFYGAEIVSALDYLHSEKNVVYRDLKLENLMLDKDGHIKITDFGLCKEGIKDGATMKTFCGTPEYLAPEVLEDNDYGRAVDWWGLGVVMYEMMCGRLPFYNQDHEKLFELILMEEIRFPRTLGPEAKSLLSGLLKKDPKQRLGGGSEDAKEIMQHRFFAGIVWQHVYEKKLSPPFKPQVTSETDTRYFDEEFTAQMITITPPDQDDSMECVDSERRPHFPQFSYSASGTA

[8] = target: Serine/threonine-protein kinase/endoribonuclease IRE2 (Homo sapiens, UniProt Q76MJ5)
Chain of Serine/threonine-protein kinase/endoribonuclease IRE2 (Q76MJ5 whole entry): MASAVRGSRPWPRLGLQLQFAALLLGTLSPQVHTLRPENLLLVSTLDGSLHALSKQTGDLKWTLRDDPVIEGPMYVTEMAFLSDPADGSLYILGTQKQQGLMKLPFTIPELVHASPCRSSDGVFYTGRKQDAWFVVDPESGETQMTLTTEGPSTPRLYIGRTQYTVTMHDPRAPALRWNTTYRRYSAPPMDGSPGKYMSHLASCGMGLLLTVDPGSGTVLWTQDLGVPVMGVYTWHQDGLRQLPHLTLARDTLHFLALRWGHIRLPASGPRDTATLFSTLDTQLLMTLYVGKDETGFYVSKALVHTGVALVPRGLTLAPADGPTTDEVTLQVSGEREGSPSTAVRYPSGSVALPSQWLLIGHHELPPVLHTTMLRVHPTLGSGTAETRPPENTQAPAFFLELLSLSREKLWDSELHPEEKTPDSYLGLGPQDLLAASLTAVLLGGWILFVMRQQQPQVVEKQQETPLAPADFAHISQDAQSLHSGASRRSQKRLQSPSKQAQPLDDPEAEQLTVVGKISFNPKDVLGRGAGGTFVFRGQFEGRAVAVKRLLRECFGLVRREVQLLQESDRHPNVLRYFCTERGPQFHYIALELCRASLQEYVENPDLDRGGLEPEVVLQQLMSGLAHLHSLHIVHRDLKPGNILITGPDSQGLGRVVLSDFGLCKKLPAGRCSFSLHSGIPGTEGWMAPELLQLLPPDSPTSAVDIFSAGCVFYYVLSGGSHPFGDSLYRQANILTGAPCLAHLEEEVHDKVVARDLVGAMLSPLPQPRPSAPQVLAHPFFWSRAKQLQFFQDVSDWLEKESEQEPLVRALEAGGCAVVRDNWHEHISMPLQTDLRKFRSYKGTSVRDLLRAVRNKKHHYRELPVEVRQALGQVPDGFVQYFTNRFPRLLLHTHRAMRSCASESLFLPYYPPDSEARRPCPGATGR

Heme oxygenase 2 = target: T5, Heme oxygenase 2 (Homo sapiens, UniProt P30519)
T5 sequence (P30519 whole entry): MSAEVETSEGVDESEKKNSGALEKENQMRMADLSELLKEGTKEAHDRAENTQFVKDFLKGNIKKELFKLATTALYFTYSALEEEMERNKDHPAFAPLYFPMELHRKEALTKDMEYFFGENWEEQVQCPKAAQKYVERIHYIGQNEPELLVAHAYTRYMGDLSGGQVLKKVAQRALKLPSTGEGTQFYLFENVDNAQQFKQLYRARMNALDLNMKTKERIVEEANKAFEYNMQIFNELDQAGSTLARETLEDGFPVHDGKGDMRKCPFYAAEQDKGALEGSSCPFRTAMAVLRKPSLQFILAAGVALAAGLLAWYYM

Chain of Interleukin-1 receptor-associated kinase 1 (P51617 whole entry): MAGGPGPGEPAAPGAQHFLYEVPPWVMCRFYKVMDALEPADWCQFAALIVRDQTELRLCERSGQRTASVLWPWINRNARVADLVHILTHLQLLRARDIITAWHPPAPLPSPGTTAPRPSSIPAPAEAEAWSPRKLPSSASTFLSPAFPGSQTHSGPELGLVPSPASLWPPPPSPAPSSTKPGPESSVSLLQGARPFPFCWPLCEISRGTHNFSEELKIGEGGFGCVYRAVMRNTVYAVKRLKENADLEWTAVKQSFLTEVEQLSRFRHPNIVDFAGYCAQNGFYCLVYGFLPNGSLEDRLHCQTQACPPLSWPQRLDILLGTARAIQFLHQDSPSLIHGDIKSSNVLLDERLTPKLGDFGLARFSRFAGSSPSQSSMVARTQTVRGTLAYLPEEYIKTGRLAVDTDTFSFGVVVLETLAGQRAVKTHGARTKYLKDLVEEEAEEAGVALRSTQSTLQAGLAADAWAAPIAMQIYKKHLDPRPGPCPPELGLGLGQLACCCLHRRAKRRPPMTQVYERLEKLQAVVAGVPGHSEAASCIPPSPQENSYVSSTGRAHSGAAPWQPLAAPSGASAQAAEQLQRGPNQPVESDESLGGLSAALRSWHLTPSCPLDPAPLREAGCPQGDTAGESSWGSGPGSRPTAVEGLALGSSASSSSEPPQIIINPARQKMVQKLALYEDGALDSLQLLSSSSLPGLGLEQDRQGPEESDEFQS

Kd [1]	Kd [2]	Kd [3]	Kd [4]	Kd [5]	Kd [6]	Kd [7]	Kd [8]	Kd (Heme oxygenase 2)	Compound
> 30 µM (inactive)	> 30 µM (inactive)	> 30 µM (inactive)	> 30 µM (inactive)	0.053 µM (active)	1.23 µM (active)	> 30 µM (inactive)	> 30 µM (inactive)	> 30 µM (inactive)	Cc1nc(Nc2n[nH]c3c2CN(C(=O)N[C@H](CN(C)C)c2ccccc2)C3(C)C)c2sccc2n1 [PF-03758309]
> 30 µM (inactive)	> 30 µM (inactive)	> 30 µM (inactive)	> 30 µM (inactive)	> 30 µM (inactive)	> 30 µM (inactive)	> 30 µM (inactive)	> 30 µM (inactive)	> 30 µM (inactive)	Cc1cnc(NC(=O)Nc2cc(Br)c(C)cc2OC[C@@H]2CNCCO2)cn1 [RABUSERTIB]
> 30 µM (inactive)	> 30 µM (inactive)	> 30 µM (inactive)	> 30 µM (inactive)	> 30 µM (inactive)	> 30 µM (inactive)	> 30 µM (inactive)	> 30 µM (inactive)	> 30 µM (inactive)	CO[C@H]1C[C@@H]2CC[C@@H](C)[C@@](O)(O2)C(=O)C(=O)N2CCCC[C@H]2C(=O)O[C@H]([C@H](C)C[C@@H]2CC[C@@H](OP(C)(C)=O)[C@H](OC)C2)CC(=O)[C@H](C)/C=C(\C)[C@@H](O)[C@@H](OC)C(=O)[C@H](C)C[C@H](C)/C=C/C=C/C=C/1C [RIDAFOROLIMUS]
> 30 µM (inactive)	> 30 µM (inactive)	> 30 µM (inactive)	> 30 µM (inactive)	> 30 µM (inactive)	> 30 µM (inactive)	> 30 µM (inactive)	> 30 µM (inactive)	> 30 µM (inactive)	N#CC1(c2ccc(NC(=O)c3cccnc3NCc3ccncc3)cc2)CCCC1 [RIVOCERANIB]
> 30 µM (inactive)	> 30 µM (inactive)	> 30 µM (inactive)	> 30 µM (inactive)	> 30 µM (inactive)	> 30 µM (inactive)	> 30 µM (inactive)	> 30 µM (inactive)	> 30 µM (inactive)	O=c1[nH]ccc2cc(OC3CCNCC3)ccc12 [SAR-407899 FREE BASE]
> 30 µM (inactive)	> 30 µM (inactive)	0.609 µM (active)	> 30 µM (inactive)	> 30 µM (inactive)	> 30 µM (inactive)	> 30 µM (inactive)	> 30 µM (inactive)	> 30 µM (inactive)	Cn1cc(-c2cnn3c(N)c(Br)c([C@@H]4CCCNC4)nc23)cn1 [SCH-900776]
> 30 µM (inactive)	> 30 µM (inactive)	> 30 µM (inactive)	> 30 µM (inactive)	> 30 µM (inactive)	> 30 µM (inactive)	> 30 µM (inactive)	> 30 µM (inactive)	> 30 µM (inactive)	CO[C@H]1C[C@@H]2CC[C@@H](C)[C@@](O)(O2)C(=O)C(=O)N2CCCC[C@H]2C(=O)O[C@H]([C@H](C)C[C@@H]2CC[C@@H](O)[C@H](OC)C2)CC(=O)[C@H](C)/C=C(\C)[C@@H](O)[C@@H](OC)C(=O)[C@H](C)C[C@H](C)/C=C/C=C/C=C/1C [SIROLIMUS]
> 30 µM (inactive)	> 30 µM (inactive)	6.8 µM (active)	> 30 µM (inactive)	> 30 µM (inactive)	0.095 µM (active)	> 30 µM (inactive)	> 30 µM (inactive)	> 30 µM (inactive)	CCS(=O)(=O)c1cccc(-c2cc(C(=O)NC3CCN(C)CC3)c(C)c3[nH]c4ncc(C)cc4c23)c1 [TAK-901]
> 30 µM (inactive)	> 30 µM (inactive)	> 30 µM (inactive)	> 30 µM (inactive)	> 30 µM (inactive)	> 30 µM (inactive)	> 30 µM (inactive)	> 30 µM (inactive)	> 30 µM (inactive)	CO[C@H]1C[C@@H]2CC[C@@H](C)[C@@](O)(O2)C(=O)C(=O)N2CCCC[C@H]2C(=O)O[C@H]([C@H](C)C[C@@H]2CC[C@@H](OC(=O)C(C)(CO)CO)[C@H](OC)C2)CC(=O)[C@H](C)/C=C(\C)[C@@H](O)[C@@H](OC)C(=O)[C@H](C)C[C@H](C)/C=C/C=C/C=C/1C [TEMSIROLIMUS]
> 30 µM (inactive)	> 30 µM (inactive)	65.7 µM (active)	> 30 µM (inactive)	> 30 µM (inactive)	> 30 µM (inactive)	> 30 µM (inactive)	> 30 µM (inactive)	> 30 µM (inactive)	COc1cc2c(Nc3ccc(Cl)c(Cl)c3F)ncnc2cc1OC[C@@H]1C[C@@H]2CN(C)C[C@@H]2C1 [TESEVATINIB]
> 30 µM (inactive)	> 30 µM (inactive)	> 30 µM (inactive)	> 30 µM (inactive)	> 30 µM (inactive)	> 30 µM (inactive)	> 30 µM (inactive)	> 30 µM (inactive)	> 30 µM (inactive)	O=C(Cc1ccc(-c2ccc(OCCN3CCOCC3)cc2)cn1)NCc1ccccc1 [TIRBANIBULIN]
> 30 µM (inactive)	> 30 µM (inactive)	> 30 µM (inactive)	> 30 µM (inactive)	> 30 µM (inactive)	> 30 µM (inactive)	> 30 µM (inactive)	> 30 µM (inactive)	0.119 µM	O=C1NC(=O)[C@@H](c2cn3c4c(cccc24)CCC3)[C@@H]1c1c[nH]c2ccccc12 [TIVANTINIB]
> 30 µM (inactive)	> 30 µM (inactive)	> 30 µM (inactive)	> 30 µM (inactive)	> 30 µM (inactive)	> 30 µM (inactive)	> 30 µM (inactive)	> 30 µM (inactive)	> 30 µM (inactive)	C[C@@H](NC(=O)c1ncnc(N)c1Cl)c1ncc(C(=O)Nc2cc(C(F)(F)F)c(Cl)cn2)s1 [TOVORAFENIB]
